Data: US20080300138A1, “Dioxazinyl-Substituted Thienylsulphonylaminocarbonyl Compounds” (priority 2004, published 2008)

What was measured:
weeds = experiment: Post-emergence test (summary in words); format: in vivo, mono- and dicotyledonous weed plants; conditions: greenhouse, result in words
Procedure: (§1) Seeds of mono- and dicotyledonous weed and crop plants are placed in sandy loam soil in wood fiber pots, covered with soil and cultivated in a greenhouse under good growth conditions. 2 to 3 weeks after sowing, the trial plants are treated at the one-leaf stage. The test compounds, formulated as wettable powders (WP), are sprayed at various dosages with a water application rate of 800 I/ha (converted) and with addition of 0.2% of welting agent onto the green parts of the plants. After the trial plants have stood in the greenhouse for about 3 weeks under optimum growth conditions, the effect of the products is scored visually in comparison to untreated controls (herbicidal effect in percent (%): 100% effect=plants have died, 0% effect=like control plants).

Lolium = experiment: Post-emergence test/greenhouse; format: in vivo; conditions: 80 g of ai/ha, WP sprayed at one-leaf stage, scored visually after about 3 weeks, 100% = plants have died, 0% = like control plants
Procedure: as §1

Echinochloa = experiment: Post-emergence test/greenhouse; format: in vivo; conditions: 80 g of ai/ha, WP sprayed at one-leaf stage, scored visually after about 3 weeks, 100% = plants have died, 0% = like control plants
Procedure: as §1

Amaranthus = experiment: Post-emergence test/greenhouse; format: in vivo; conditions: 80 g of ai/ha, WP sprayed at one-leaf stage, scored visually after about 3 weeks, 100% = plants have died, 0% = like control plants
Procedure: as §1

Stellaria = experiment: Post-emergence test/greenhouse; format: in vivo; conditions: 80 g of ai/ha, WP sprayed at one-leaf stage, scored visually after about 3 weeks, 100% = plants have died, 0% = like control plants
Procedure: as §1

Sinapis = experiment: Post-emergence test/greenhouse; format: in vivo; conditions: 80 g of ai/ha, WP sprayed at one-leaf stage, scored visually after about 3 weeks, 100% = plants have died, 0% = like control plants
Procedure: as §1

Setaria = experiment: Post-emergence test/greenhouse; format: in vivo; conditions: 80 g of ai/ha, WP sprayed at one-leaf stage, scored visually after about 3 weeks, 100% = plants have died, 0% = like control plants
Procedure: as §1

Cyperus = experiment: Post-emergence test/greenhouse; format: in vivo; conditions: 80 g of ai/ha, WP sprayed at one-leaf stage, scored visually after about 3 weeks, 100% = plants have died, 0% = like control plants
Procedure: as §1

| SMILES | effectiveness against weeds (weeds) | herbicidal effect in percent, Lolium (Lolium) | herbicidal effect in percent, Echinochloa (Echinochloa) | herbicidal effect in percent, Amaranthus (Amaranthus) | herbicidal effect in percent, Stellaria (Stellaria) | herbicidal effect in percent, Sinapis (Sinapis) | herbicidal effect in percent, Setaria (Setaria) | herbicidal effect in percent, Cyperus (Cyperus) |
| --- | --- | --- | --- | --- | --- | --- | --- | --- |
| CCOc1nn(C)c(=O)n1C [Example 7] | highly effective | 90% | 90% | 90% | 90% | 80% | 90% | 90% |
| COc1nn(C)c(=O)n1C [Example 6] | highly effective | 90% | 80% | 90% | 90% | 80% | 80% | 80% |
| COc1nc(C)nc(NC(=O)NS(=O)(=O)c2c(C3=NOCCO3)csc2C)n1 [Example 1, N-(4-methoxy-6-methyl-1,3,5-triazin-2-yl)-N′-(4-(5,6-dihydro-[1,4,2]-dioxazin-3-yl)-2-methylthien-3-ylsulfonyl)urea] | highly effective | 90% | 90% | 90% | 90% | 90% | 90% | 100% |
